These results are taken from patent US9357779B2 (priority 2010, dated 2016).

The test system of one data set is Phytophthora infestans. It is filed as in vivo. The conditions noted are these: tomato plants, protective, active compound concentration 500 ppm, evaluation 7 days after inoculation.
Another data set deals with Plasmopara viticola. The experiment in a line: Plasmopara test (grapevine)/protective. It is filed as in vivo. The conditions noted are these: protective, active compound concentration 500 ppm, evaluation 6 days after inoculation. On the procedure:
Plasmopara Test (Grapevine)/Protective
To produce a suitable preparation of active compound, 1 part by weight of active compound is mixed with the stated amounts of solvent and emulsifier, and the concentrate is diluted with water to the desired concentration.
To test for protective activity, young plants are sprayed with the preparation of active compound at the stated application rate. After the spray coating has dried on, the plants are inoculated with an aqueous spore suspension of Plasmopara viticola and then remain in an incubation cabin at about 20° C. and 100% relative atmospheric humidity for 1 day. The plants are then placed in a greenhouse at about 21° C. and about 90% atmospheric humidity for 4 days. The plants are then moistened and placed in an incubation cabin for 1 day.
Evaluation is carried out 6 days after the inoculation. 0% means an efficacy which corresponds to that of the control, whereas an efficacy of 100% means that no infection is observed.

The conditions of data set [1]: acidic range, pH 2.7, 0.1% aqueous formic acid/acetonitrile.
Protocol: (§1) Calibration was carried out using unbranched alkan-2-ones (having from 3 to 16 carbon atoms) with known log P values (the log P values were determined by the retention times using linear interpolation between two successive alkanones).
Another data set can be described thus: physchem. The conditions noted are these: pH 2.7, log P [a], acidic range, pH 2.7, 0.1% aqueous formic acid/acetonitrile.

Protocol for physchem: as §1

In the case of `C#CCOc1ccccc1C(=O)/C=C/c1csc(C2CCN(C(=O)Cn3nc(C(F)F)cc3C(F)F)CC2)n1` [Compound I-55], the values for the efficacy with Phytophthora infestans and in the data set on Plasmopara viticola were 98% and 100%, respectively. In data set [1], the “log P [a]” value was 3.28^[a].
On the same counts, the results for `O=C(/C=C/c1csc(C2CCN(C(=O)Cn3nc(C(F)F)cc3C(F)F)CC2)n1)c1c(Cl)cccc1Cl` [Compound I-43] are 90%, 100% and 3.7^[a].
For `O=C(/C=C/c1csc(C2CCN(C(=O)Cn3nc(C(F)F)cc3C(F)F)CC2)n1)c1ccccc1I` [Compound I-33], the efficacy with Phytophthora infestans came out at 95%; in the data set with Plasmopara viticola, 89%. For the same molecule, the “log P [a]” value in data set [1] was 3.65^[a];.
`CC(CC(=O)c1c(F)cccc1F)c1csc(C2CCN(C(=O)Cn3nc(C(F)F)cc3C(F)F)CC2)n1` (stereo not drawn) [Compound I-51]: the efficacy in the data set with Phytophthora infestans was determined as 98%; in the data set with Plasmopara viticola it was 100%.
On to `O=C(/C=C/c1csc(C2CCN(C(=O)Cn3nc(C(F)F)cc3C(F)F)CC2)n1)c1cccc2ccccc12` [Compound I-46], for which the efficacy in the data set on Phytophthora infestans is 95%; in the data set on Plasmopara viticola it was 100%. For the same molecule, the “log P [a]” value in data set [1] is 2.84^[a].
Turning to `CC1CCCCC1C(=O)C=Cc1csc(C2CCN(C(=O)Cn3nc(C(F)F)cc3C(F)F)CC2)n1` (mixture of isomers) [Compound I-50], the efficacy in the data set with Phytophthora infestans is given as 95%; with Plasmopara viticola, 93%. Moreover, the “log P [a]” value in data set [1] is 4.11^[a].
With `O=C(/C=C/c1csc(C2CCN(C(=O)Cn3nc(C(F)F)cc3C(F)F)CC2)n1)c1cccc(F)c1` [Compound I-52], the figures for the efficacy with Phytophthora infestans and in the data set with Plasmopara viticola were 98% and 94%, respectively. Also, the “log P [a]” value in data set [1] was 3.35^[a].
Turning to `O=C(/C=C/c1csc(C2CCN(C(=O)Cn3nc(C(F)F)cc3C(F)F)CC2)n1)c1ccc(F)cc1Br` [Compound I-34], the efficacy with Phytophthora infestans is recorded as 95%; in the data set on Plasmopara viticola it was 84%. In addition, the “log P [a]” value in data set [1] was 3.7^[a];.
Turning to `O=C(/C=C/c1csc(C2CCN(C(=O)Cn3nc(C(F)F)cc3C(F)F)CC2)n1)c1ccccc1Cl` [Compound I-42], the efficacy stood at 100% in the data set with Phytophthora infestans and 90% in the data set on Plasmopara viticola. In addition, the “log P [a]” value in data set [1] is 3.51^[a].
Take `O=C(/C=C/c1csc(C2CCN(C(=O)Cn3nc(C(F)F)cc3C(F)F)CC2)n1)c1cc(F)ccc1Cl` [Compound I-35]: the figures for the efficacy with Phytophthora infestans and in the data set on Plasmopara viticola were 95% and 89%, respectively. Also, the “log P [a]” value in data set [1] is 3.64^[a];.
With `O=C(/C=C/c1csc(C2CCN(C(=O)Cn3nc(C(F)F)cc3C(F)F)CC2)n1)c1c(F)cc(F)cc1F` [Compound I-57], the efficacy with Phytophthora infestans came to 98%; in the data set with Plasmopara viticola, 91%. Besides, in data set [1], the “log P [a]” value is 3.51^[a];.
`O=C(/C=C/c1csc(C2CCN(C(=O)Cn3nc(C(F)F)cc3C(F)F)CC2)n1)c1ccccc1Br` [Compound I-29]: the efficacy in the data set with Phytophthora infestans is 100%; in the data set with Plasmopara viticola, 95%. Also, in data set [1], the “log P [a]” value was 3.51^[a];.
For `O=C(CC1CCCCC1)c1csc(C2CCN(C(=O)Nc3cc(C(F)F)ccc3C(F)F)CC2)n1` [Compound I-30], the efficacy in the data set with Phytophthora infestans was 95%; with Plasmopara viticola, 85%. Further, in data set [1], the “log P [a]” value is 4.3^[a];.
On to `O=C(CC1CCCCC1)c1csc(C2CCN(C(=O)Cn3nc(C(F)F)cc3C(F)F)CC2)n1` [Compound I-24, 2-[3,5-Bis(difluoromethyl)-1H-pyrazol-1-yl]-1-{4-[4-(cyclohexylacetyl)-1,3-thiazol-2-yl]piperidin-1-yl}ethanone], for which the figures for the efficacy in the data set with Phytophthora infestans and in the data set with Plasmopara viticola were 94% and 100%, respectively.
Broadly, the chromatographic logP is a lipophilicity value derived from retention on a column. A low value points to a more hydrophilic compound. Take `CON=C(CC1CCCCC1)c1csc(C2CCN(C(=O)Cn3nc(C(F)F)cc3C(F)F)CC2)n1` [Compound I-60, 2-[3,5-Bis(difluoromethyl)-1H-pyrazol-1-yl]-1-{4-[4-(2-cyclohexyl-N-methoxyethanimidoyl)-1,3-thiazol-2-yl]piperidin-1-yl}ethanone]: in the data set on Phytophthora infestans, the efficacy is reported as 95%. This molecule displayed a chromatographic logP in “physchem” of 4.8.
